Data taken from patent US20110124589A1, “INHALED FOSFOMYCIN/TOBRAMYCIN FOR THE TREATMENT OF CHRONIC OBSTRUCTIVE PULMONARY DISEASE” (Gilead Sciences, Inc., priority 2009, published 2011).
Values after ≈ are worked out from the molar mass of the structure shown. Read-outs that look alike come from different tables or passages of the source.

Experiments:
P. aeruginosa ATCC 27853 [1] = assay: Time-kill experiments in 2% porcine gastric mucin; format: cell-based; conditions: 2% mucin
Method: These studies were previously reported in PCT Publication no. WO2005/110022 to Gilead Sciences, Inc. (formerly Carus Pharma). Two to three bacterial colonies were inoculated into 10 mL CAMHB and incubated at 35° C. in a shaking water bath (250 rpm) for 18-24 hours. A 1:40 dilution of the overnight culture was made in 10 mL of fresh CAMHB and incubated at 35° C. in a shaking water bath (250 rpm) for 1-2 hours. […] Ten milliliter aliquots were then pipeted into 50 mL conical tubes. […] The killing activity of fosfomycin plus tobramycin was also compared to the killing activity of the individual components. […] A no drug control was conducted in each experiment. […] Bacterial killing was determined at 0, 1, 2, 4, 6, and 24 hours by making 10-fold serial dilutions of the cultures in sterile normal saline, and spreading 100 μl aliquots on blood agar plates. […] The limit of detection for the colony counting method was 1 Log10. Time-kill curves were constructed by plotting the Log10 number of CFU/mL culture versus time.

P. aeruginosa [2] = conditions: agar dilution, cited from earlier work
H. influenzae [3] = conditions: cited from earlier work
E. coli = conditions: cited from earlier work
H. influenzae [4] = assay: MIC, agar-plate dilution (Method A)
Method: (§1) The efficacy of antibiotics and antibiotic combinations against Gram-positive and Gram-negative bacteria representative of species that cause respiratory infections were evaluated in MIC assays. […] H. influenzae, M. catarrhalis, and S. aureus, were isolated from respiratory tract infections. E. coli ATCC 25922, P. aeruginosa ATCC 27853, and S. aureus ATCC 29213 were used as quality control stains.
(§2) Method A: The MICs of fosfomycin alone, tobramycin alone, or combinations of fosfomycin plus tobramycin were determined by the agar-plate dilution method according to NCCLS guidelines (NCCLS, 2003). Bacterial strains were streaked onto Trypic Soy Agar plates (PML Microbiologicals, Wilsonville, Oreg.) containing 5% defibrinated sheep blood (hereafter referred to as blood agar plates) and incubated overnight at 35° C. Two to three bacterial colonies from the overnight cultures were inoculated into 3 mL of sterile normal saline, vortexed briefly, and adjusted to a 0.5 McFarland standard (NCCLS, 2003). The bacterial suspension was diluted 1:40 in sterile normal saline and served as the inoculum. Mueller-Hinton agar plates (hereafter referred to as MHA) were prepared by combining 16 g of agarose (Becton-Dickinson, Sparks, Md.), 22 g of Mueller-Hinton broth powder (Becton-Dickinson, Sparks, Md.), and adjusted to 1 L with distilled water. The agar was sterilized by autoclaving, cooled to 55° C., and supplemented with 25 μg/mL of glucose-6-phosphate (Sigma-Aldrich, St. Louis, Mo.). Twenty-five mL of cooled agar was aliquoted into 50 mL conical tubes and supplemented with appropriate concentrations of antibiotic to achieve concentrations ranging from 0.06 μg/mL to 512 μg/mL. After gently mixing the agar and antibiotic, the suspension was poured into sterile 100 mm petri dishes and allowed to solidify at room temperature. The antibiotic agar plates were inoculated with approximately 2×10^4 CFU/spot with a 48-point inoculator (Sigma-Aldrich, St. Louis, Mo.). The MIC was defined as the lowest concentration of antibiotic (s) that prevented visible growth after incubation for 18-20 hours at 35° C.

S. pneumoniae [5] = assay: MIC, agar-plate dilution (Method A); conditions: Streptococcus pneumoniae
Method: as §1, §2

P. aeruginosa C177 = assay: Rat bacterial pneumonia model
Method: Animals were handled according to the guidelines for the Care and use of Laboratory Animals. […] All animal protocols were approved by an IRB/Ethics Committee. Male Sprague-Dawley rats (180-200 g) were obtained from Charles River Laboratories (Hollister, Calif., USA) and acclimatized for 5 days prior to use. Animals were housed individually in ventilated cages, fed Purina Lab Diet ad libitum and allowed free access to water.
Antibiotic efficacy was determined using a rat bacterial pneumonia model. […] Rats were anaesthetized with isoflurane, and ˜10^3 cfu of P. aeruginosa C177 in 2% agar solution were instilled into the lungs with an oral gavage needle. The inoculum was deposited at the first bifurcation and distributed throughout the lungs by inspiration. Animals were allowed to recover for 18 hr post-infection. Each experiment consisted of pre-treatment (n=5-7), saline control with isoflurane, and 100 μL of antibiotic solution or saline was instilled in the trachea using a Microsprayer™ (Penn-Century In., Philadelphia, Pa., USA). Antibiotics were administered intratracheally twice daily for 3 days.
Animals were euthanized by intraperitoneal administration of sodium pentobarbital. The pre-treatment control group was harvested 18 hr post-infection, and the saline and treatment groups 18 hr after the last antibiotic exposure. Lungs were removed aseptically, homogenized in sterile normal saline and viable bacteria determined by the colony count method. Statistical differences between the saline control group and treatment groups were evaluated by the Mann-Whitney Rank Sum Test using GraphPad Prism® software package version 3.03 (GraphPad Software, Inc., San Diego, Calif., USA).

S. aureus [6] = conditions: cited from earlier work
H. influenzae [7] = assay: MIC of recent clinical isolates, agar dilution (CMI study); format: cell-based; conditions: Haemophilus influenzae
P. aeruginosa [8] = assay: MIC, agar-plate dilution with 2% porcine gastric mucin (Method B); format: cell-based; conditions: Pseudomonas aeruginosa; 100 P. aeruginosa strains from cystic fibrosis lung sputum; 2% mucin
Method: Bacterial strains were streaked onto […] […] Louis, Mo.). […] Louis, Mo.). […] Methodologies were identical to that described in Method A above, with the exception that 2% (weight/volume) porcine gastric mucin (Sigma Chemical Co., St. Louis, Mo.) was added to the MHA prior to autoclaving.

S. pyogenes = conditions: 5 isolates; broth microdilution; cited from earlier work
H. influenzae [9] = conditions: 16 isolates; agar dilution; cited from earlier work
P. aeruginosa ATCC 27853 [10] = assay: MBC/MIC, broth microdilution
Method: The MBCs of fosfomycin and tobramycin alone for P. aeruginosa ATCC 27853, E. coli ATCC 25922, and S. aureus ATCC 29213 were determined by the broth microdilution method according to NCCLS standards (NCCLS, 1999). […] Bacterial strains were streaked onto blood agar plates and incubated at 35° C. for 18-24 hours. Two to three bacterial colonies from the overnight cultures were inoculated into 3 mL of sterile normal saline, vortexed briefly, and adjusted to a 0.5 McFarland standard (NCCLS, 2003). Fifty microliters of bacterial inoculum (approximately 2×10^5 CFU/mL) was pipeted into individual wells of 96-well plates containing 50 μl of CAMHB (Remel, Lenexa, Kanas) supplemented with 2-fold dilutions of antibiotics ranging in concentration from 0.125 μg/mL to 128 μg/mL. […] The contents of wells showing no growth (MIC and above) were mixed with a pipetor and duplicate 10 μl samples spread onto blood agar plates. Culture plates were incubated at 35° C. for 18-24 hours and the number of bacterial colonies on each plate enumerated manually. Rejection values were determined by NCCLS methods which considers the final inoculum size, single or double sampling, pipetting error, and the Poisson distributuion of sample responses (NCCLS, 1999). […] The MBC/MIC ratios were calculated by dividing the MBC by the MIC.

B. cepacia complex = conditions: 20 isolates; agar dilution; cited from earlier work
P. aeuriginosa = assay: Dose-response time-kill studies in 2% mucin; format: cell-based
S. pneumoniae [11] = assay: MIC of recent clinical isolates, agar dilution (CMI study); format: cell-based
[12] = Sputum drug concentrations following aerosolization of FTI; format: in vivo, human; conditions: for Cmax: human, sputum, inhaled
Method: In order to assess the amount of drug delivered to the respiratory track, drug concentration was measured in expectorated sputum for patients with CF or bronchiectasis. The fosfomycin and tobramycin range for patient type and dose was 1751-2974 μg/g and 326-881 μg/g, respectively.

S. aureus [13] = assay: MIC of recent clinical isolates, agar dilution (CMI study); format: cell-based; conditions: Staphylococcus aureus
S. aureus [14] = assay: MIC, agar-plate dilution (Method A); conditions: Staphylococcus aureus
Method: as §1, §2

Klebsiella spp. [15] = conditions: 22 isolates; broth microdilution; cited from earlier work
S. pneumoniae [16] = conditions: 8 isolates; agar dilution; cited from earlier work
M. catarrhalis [17] = conditions: 5 isolates; agar dilution; cited from earlier work
M. catarrhalis [18] = assay: MIC of recent clinical isolates, agar dilution (CMI study); format: cell-based; conditions: Moraxella catarrhalis; 103 isolates
Klebsiella spp. [19] = conditions: cited from earlier work

In the case of `NC[C@H]1O[C@H](O[C@H]2[C@H](O)[C@@H](O[C@H]3O[C@H](CO)[C@@H](O)[C@H](N)[C@H]3O)[C@H](N)C[C@@H]2N)[C@H](N)C[C@@H]1O` [Tobramycin], the “activity at 24 hours in time-kill curves (FIG. 2)” value (P. aeruginosa ATCC 27853 [1]; 12.8 μg/mL fosfomycin, 3.2 μg/mL tobramycin, or both, 24 hours) is reported as “re-growth was observed”, the “killing activity in time-kill curves (FIG. 2)” value (P. aeruginosa ATCC 27853 [1]; 4×MIC: 12.8 μg/mL fosfomycin + 3.2 μg/mL tobramycin vs the components alone) is reported as “bacteriostatic activity” and the “killing activity in time-kill curves (FIG. 1)” value (P. aeruginosa ATCC 27853 [1]; 9:1 combination (fosfomycin 14.4 μg/mL + tobramycin 1.6 μg/mL) vs the components alone) is reported as “bacteriostatic killing”. For the same compound, the MIC50 (P. aeruginosa [2]; CF, 100 isolates) was 2 µg/mL (≈ 4.28 µM), the MIC90 (P. aeruginosa [2]; CF, 100 isolates) was 16 µg/mL (≈ 34.2 µM) and the MIC50 (P. aeruginosa [2]; non-CF, 60 isolates) was 1 µg/mL (≈ 2.14 µM). For the same compound, the MIC90 (P. aeruginosa [2]; non-CF, 60 isolates) was 128 µg/mL (≈ 274 µM), the “Range of MBC/MIC” value (H. influenzae [3]; 6 strains) was 1-2 and the “strains against which bactericidal” value (H. influenzae [3]) was 100%. The “Range of MBC/MIC” value (E. coli; 10 strains) was 1-4, the “strains against which bactericidal” value (E. coli) was 100% and the MIC (H. influenzae [4]; Haemophilus influenzae) was 0.5 µg/mL (≈ 1.07 µM). The MIC (H. influenzae [4]; strain COR-049) was 0.5 µg/mL (≈ 1.07 µM), the MIC (S. pneumoniae [5]; strain COR-061) was 64 µg/mL (≈ 137 µM) and the MIC (S. pneumoniae [5]; strain COR-068) was 16 µg/mL (≈ 34.2 µM). For the same compound, the “reduction in lung burden” value (P. aeruginosa C177; 1 mg/kg of tobramycin alone (FIG. 11)) was about 500 fold, the “bacterial killing in rat lung” value (P. aeruginosa C177; 2.5 mg/kg intratracheally twice daily for 3 days (FIG. 11)) was 3 Log10 and the “eradication of P. aeruginosa infection” value (P. aeruginosa C177; doses higher than 3 mg/kg intratracheally) was “complete eradication”. The “bacterial killing in rat lung” value (P. aeruginosa C177; doses=0.5 mg/kg intratracheally) was “did not result in bacterial killing”, the “Range of MBC/MIC” value (S. aureus [6]; 10 strains) was 1-2 and the “strains against which bactericidal” value (S. aureus [6]) was 100%. It also gave an MIC50 (H. influenzae [7]; β-lactamase neg, 62 isolates) of 4 µg/mL, an MIC90 (H. influenzae [7]; β-lactamase neg, 62 isolates) of 8 µg/mL and an MIC50 (H. influenzae [7]; β-lactamase pos, 39 isolates) of 4 µg/mL. It also gave an MIC90 (H. influenzae [7]; β-lactamase pos, 39 isolates) of 4 µg/mL, an MIC50 (P. aeruginosa [8]) of 16 µg/mL (≈ 34.2 µM) and an MIC90 (P. aeruginosa [8]) of 64 µg/mL (≈ 137 µM). The MIC range (S. pyogenes) was 16 to 64 µg/mL, the MIC50 (H. influenzae [9]) was 1 µg/mL (≈ 2.14 µM) and the MIC90 (H. influenzae [9]) was 1 µg/mL (≈ 2.14 µM). For the same compound, the MIC range (H. influenzae [9]) was 0.5 to 1 µg/mL, the MBC/MIC (P. aeruginosa ATCC 27853 [10]) was 1 and the MIC50 (B. cepacia complex) was 64 µg/mL (≈ 137 µM). The MIC90 (B. cepacia complex) was 512 µg/mL (≈ 1100 µM), the bactericidal or bacteriostatic (P. aeuriginosa; 2% mucin (FIGS. 4-6)) was “rapidly bactericidal” and the “time-dependent or concentration-dependent killing” value (P. aeuriginosa; 2% mucin (FIGS. 4-6)) was “concentration-dependent killing”. The “re-growth within 24 hours” value (P. aeuriginosa; 2% mucin (FIGS. 5-6)) was “re-growth occurred within 24 hours”, the MIC50 (S. pneumoniae [11]; Penicillin resistant, 32 isolates) was 32 µg/mL and the MIC90 (S. pneumoniae [11]; Streptococcus pneumoniae, Penicillin resistant, 32 isolates) was over 32 µg/mL. For the same compound, the MIC90 (S. pneumoniae [11]; Streptococcus pneumoniae, penicillin suscept., 39 isolates) was over 32 µg/mL, the MIC50 (S. pneumoniae [11]; Streptococcus pneumoniae, penicillin suscept., 39 isolates, read-out: MIC50) was 32 µg/mL and the “sputum concentration range for patient type and dose” value ([12]; both FTI doses, CF and bronchiectasis patients) was 326 to 881 µg/g. The Cmax ([12]; 20 mg, patients with Bronchiectasis, aerosolized 80:20 mg FTI) was 326000 ng/g, the Cmax ([12]; 20 mg, patients with Cystic Fibrosis, aerosolized 80:20 mg FTI) was 580000 ng/g and the Cmax ([12]; 40 mg, patients with Bronchiectasis, aerosolized 160:40 mg FTI) was 587000 ng/g. It also gave a Cmax ([12]; 40 mg, patients with Cystic Fibrosis, aerosolized 160:40 mg FTI) of 881000 ng/g, an MIC50 (S. aureus [13]; MRSA, 103 isolates) of 0.5 µg/mL and an MIC90 (S. aureus [13]; MRSA, 103 isolates) of over 32 µg/mL. It also gave an MIC50 (S. aureus [13]; MSSA, 104 isolates) of 0.25 µg/mL, an MIC90 (S. aureus [13]; MSSA, 104 isolates) of 0.5 µg/mL and an MIC (S. aureus [14]) of 64 µg/mL (≈ 137 µM). The MIC (S. aureus [14]; MRSA) was 0.25 µg/mL (≈ 0.535 µM), the MIC (S. aureus [14]; MSSA) was 0.25 µg/mL (≈ 0.535 µM) and the MIC (S. aureus [14]; strain COR-059) was 128 µg/mL (≈ 274 µM). For the same compound, the MIC50 (Klebsiella spp. [15]) was 0.13 µg/mL (≈ 0.278 µM), the MIC90 (Klebsiella spp. [15]) was 16 µg/mL (≈ 34.2 µM) and the MIC range (S. pneumoniae [16]) was 16 to 64 µg/mL. The MIC range (M. catarrhalis [17]) was 0.5 to 1 µg/mL, the MIC50 (M. catarrhalis [18]) was 0.12 µg/mL and the MIC90 (M. catarrhalis [18]) was 0.25 µg/mL. For the same compound, the “Range of MBC/MIC” value (Klebsiella spp. [19]; 5 strains) was 1-4 and the “strains against which bactericidal” value (Klebsiella spp. [19]) was 100%.
